In PubChem BioAssay (NCI):
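1) Cells in 96-well plates. 2) Compound, 48 h, 5 concentrations. 3) Linear interpolation between surrounding doses. 4) Unreached endpoint = highest concentration. GI50 is the concentration that inhibits growth by half. The concentration for full growth arrest is given as TGI.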

Assays:
Assay in all cases: DTP human tumour cell line panel, 48 h
A498 renal = tested on: A498 renal
MALME-3M melanoma = tested on: MALME-3M melanoma
SK-OV-3 ovarian = tested on: SK-OV-3 ovarian
CCRF-CEM leukemia = tested on: CCRF-CEM leukemia
MDA-MB-231 breast = tested on: MDA-MB-231 breast
UACC-257 melanoma = tested on: UACC-257 melanoma
HCC-2998 colon = tested on: HCC-2998 colon
SN12C renal = tested on: SN12C renal
TK-10 renal = tested on: TK-10 renal
EKVX NSCLC = tested on: EKVX NSCLC
M14 melanoma = tested on: M14 melanoma
HOP-62 NSCLC = tested on: HOP-62 NSCLC
PC-3 prostate = tested on: PC-3 prostate
MCF7 breast = tested on: MCF7 breast
OVCAR-5 ovarian = tested on: OVCAR-5 ovarian
RPMI-8226 leukemia = tested on: RPMI-8226 leukemia
NCI-H23 lung = tested on: NCI-H23 lung
SF-539 CNS = tested on: SF-539 CNS
HCT-15 colon = tested on: HCT-15 colon
SNB-19 CNS = tested on: SNB-19 CNS
U251 CNS = tested on: U251 CNS
OVCAR-3 ovarian = tested on: OVCAR-3 ovarian
NCI-H460 lung = tested on: NCI-H460 lung
ACHN renal = tested on: ACHN renal
SR leukemia = tested on: SR leukemia
HS 578T breast = tested on: HS 578T breast
LOX IMVI melanoma = tested on: LOX IMVI melanoma
NCI-H226 lung = tested on: NCI-H226 lung
T-47D breast = tested on: T-47D breast
OVCAR-8 ovarian = tested on: OVCAR-8 ovarian
SF-295 CNS = tested on: SF-295 CNS
IGROV1 ovarian = tested on: IGROV1 ovarian
MDA-MB-468 breast = tested on: MDA-MB-468 breast
KM12 colon = tested on: KM12 colon
UACC-62 melanoma = tested on: UACC-62 melanoma
SK-MEL-2 melanoma = tested on: SK-MEL-2 melanoma
RXF 393 renal = tested on: RXF 393 renal
HCT-116 colon = tested on: HCT-116 colon
A549 NSCLC = tested on: A549 NSCLC
CAKI-1 renal = tested on: CAKI-1 renal
HL-60(TB) leukemia = tested on: HL-60(TB) leukemia
SW-620 colon = tested on: SW-620 colon
MOLT-4 leukemia = tested on: MOLT-4 leukemia
MDA-MB-435 = tested on: MDA-MB-435
SK-MEL-28 melanoma = tested on: SK-MEL-28 melanoma
SK-MEL-5 melanoma = tested on: SK-MEL-5 melanoma
NCI/ADR-RES ovarian = tested on: NCI/ADR-RES ovarian
SNB-75 CNS = tested on: SNB-75 CNS
SF-268 CNS = tested on: SF-268 CNS
COLO 205 colon = tested on: COLO 205 colon
DU-145 prostate = tested on: DU-145 prostate
OVCAR-4 ovarian = tested on: OVCAR-4 ovarian
UO-31 renal = tested on: UO-31 renal
K-562 leukemia = tested on: K-562 leukemia
HT29 colon = tested on: HT29 colon
BT-549 breast = tested on: BT-549 breast
NCI-H522 lung = tested on: NCI-H522 lung
786-0 renal = tested on: 786-0 renal
HOP-92 NSCLC = tested on: HOP-92 NSCLC

Structure (SMILES): OC1CCC(Cn2c(C(F)(F)F)cc3c(Cl)ncnc32)CC1 (stereo not drawn)
- GI50 (A498 renal): > 100 µM
- TGI (A498 renal): > 100 µM
- GI50 (MALME-3M melanoma): 17.7 µM
- TGI (MALME-3M melanoma): 64.5 µM
- GI50 (SK-OV-3 ovarian): 22.4 µM
- TGI (SK-OV-3 ovarian): > 100 µM
- GI50 (CCRF-CEM leukemia): 5.56 µM
- TGI (CCRF-CEM leukemia): > 100 µM
- GI50 (MDA-MB-231 breast): 4.45 µM
- TGI (MDA-MB-231 breast): 20.1 µM
- GI50 (UACC-257 melanoma): 3.4 µM
- TGI (UACC-257 melanoma): 14.1 µM
- GI50 (HCC-2998 colon): 1.8 µM
- TGI (HCC-2998 colon): 3.33 µM
- GI50 (SN12C renal): 5.36 µM
- TGI (SN12C renal): 19.8 µM
- GI50 (TK-10 renal): > 100 µM
- TGI (TK-10 renal): > 100 µM
- GI50 (EKVX NSCLC): 12.9 µM
- TGI (EKVX NSCLC): 38.7 µM
- GI50 (M14 melanoma): 4.94 µM
- TGI (M14 melanoma): 27 µM
- GI50 (HOP-62 NSCLC): 19.7 µM
- TGI (HOP-62 NSCLC): 57.6 µM
- GI50 (PC-3 prostate): 9.01 µM
- TGI (PC-3 prostate): 36.3 µM
- GI50 (MCF7 breast): 36.9 µM
- TGI (MCF7 breast): > 100 µM
- GI50 (OVCAR-5 ovarian): > 100 µM
- TGI (OVCAR-5 ovarian): > 100 µM
- GI50 (RPMI-8226 leukemia): 34 µM
- TGI (RPMI-8226 leukemia): > 100 µM
- GI50 (NCI-H23 lung): 3.08 µM
- TGI (NCI-H23 lung): 11.4 µM
- GI50 (SF-539 CNS): 17.7 µM
- TGI (SF-539 CNS): 39 µM
- GI50 (HCT-15 colon): 3.69 µM
- TGI (HCT-15 colon): 20.1 µM
- GI50 (SNB-19 CNS): 13.4 µM
- TGI (SNB-19 CNS): 26.8 µM
- GI50 (U251 CNS): 3.21 µM
- TGI (U251 CNS): 12.8 µM
- GI50 (OVCAR-3 ovarian): 8.04 µM
- TGI (OVCAR-3 ovarian): 29.1 µM
- GI50 (NCI-H460 lung): 4.76 µM
- TGI (NCI-H460 lung): 16.6 µM
- GI50 (ACHN renal): 8.76 µM
- TGI (ACHN renal): 49.9 µM
- GI50 (SR leukemia): 2.14 µM
- TGI (SR leukemia): 6.78 µM
- GI50 (HS 578T breast): 13.8 µM
- TGI (HS 578T breast): 53.6 µM
- GI50 (LOX IMVI melanoma): 1.71 µM
- TGI (LOX IMVI melanoma): 3.15 µM
- GI50 (NCI-H226 lung): 23.4 µM
- TGI (NCI-H226 lung): 79.7 µM
- GI50 (T-47D breast): 26.5 µM
- TGI (T-47D breast): > 100 µM
- GI50 (OVCAR-8 ovarian): 2.29 µM
- TGI (OVCAR-8 ovarian): 5.39 µM
- GI50 (SF-295 CNS): 22.7 µM
- TGI (SF-295 CNS): 84 µM
- GI50 (IGROV1 ovarian): 1.97 µM
- TGI (IGROV1 ovarian): 4.07 µM
- GI50 (MDA-MB-468 breast): 2.14 µM
- TGI (MDA-MB-468 breast): 5.69 µM
- GI50 (KM12 colon): 26.4 µM
- TGI (KM12 colon): 94.3 µM
- GI50 (UACC-62 melanoma): 5.4 µM
- TGI (UACC-62 melanoma): 19.3 µM
- GI50 (SK-MEL-2 melanoma): 13.2 µM
- TGI (SK-MEL-2 melanoma): 27.9 µM
- GI50 (RXF 393 renal): 12.5 µM
- TGI (RXF 393 renal): 35 µM
- GI50 (HCT-116 colon): 3.56 µM
- TGI (HCT-116 colon): 15.8 µM
- GI50 (A549 NSCLC): 30.8 µM
- TGI (A549 NSCLC): > 100 µM
- GI50 (CAKI-1 renal): 16.8 µM
- TGI (CAKI-1 renal): 52.8 µM
- GI50 (HL-60(TB) leukemia): 2.62 µM
- TGI (HL-60(TB) leukemia): 9.01 µM
- GI50 (SW-620 colon): 12.2 µM
- TGI (SW-620 colon): 38.8 µM
- GI50 (MOLT-4 leukemia): 2.77 µM
- TGI (MOLT-4 leukemia): 8.15 µM
- GI50 (MDA-MB-435): 12.1 µM
- TGI (MDA-MB-435): 25.8 µM
- GI50 (SK-MEL-28 melanoma): 9.38 µM
- TGI (SK-MEL-28 melanoma): 30.8 µM
- GI50 (SK-MEL-5 melanoma): 4.81 µM
- TGI (SK-MEL-5 melanoma): 16.7 µM
- GI50 (NCI/ADR-RES ovarian): 26.1 µM
- TGI (NCI/ADR-RES ovarian): > 100 µM
- GI50 (SNB-75 CNS): 10.8 µM
- TGI (SNB-75 CNS): 23.1 µM
- GI50 (SF-268 CNS): 2.52 µM
- TGI (SF-268 CNS): 6.89 µM
- GI50 (COLO 205 colon): 24.4 µM
- TGI (COLO 205 colon): > 100 µM
- GI50 (DU-145 prostate): 7.87 µM
- TGI (DU-145 prostate): 20.5 µM
- GI50 (OVCAR-4 ovarian): 17.8 µM
- TGI (OVCAR-4 ovarian): 47.2 µM
- GI50 (UO-31 renal): 15.1 µM
- TGI (UO-31 renal): 65.8 µM
- GI50 (K-562 leukemia): 2.88 µM
- TGI (K-562 leukemia): > 100 µM
- GI50 (HT29 colon): 15.6 µM
- TGI (HT29 colon): > 100 µM
- GI50 (BT-549 breast): 13.1 µM
- TGI (BT-549 breast): 27.9 µM
- GI50 (NCI-H522 lung): 1.54 µM
- TGI (NCI-H522 lung): 3.55 µM
- GI50 (786-0 renal): 32.1 µM
- TGI (786-0 renal): > 100 µM
- GI50 (HOP-92 NSCLC): 20.6 µM
- TGI (HOP-92 NSCLC): 64.6 µM
